From patent publication US20120094897A1, “NOVEL INHIBITORS OF HEPATITIS C VIRUS REPLICATION” (InterMune, Inc., priority 2010, published 2012)

Key:
[1] = target: T1, HCV NS3 protease (full-length NS3/NS4A-2 complex) (Hepatitis C virus genotype 1a, UniProt P27958); test: NS3 Inhibition Assay (NS3-NS4 protease assay, RETS1 substrate); assay type: biochemical; details: NS3/NS4A-2, RETS1 substrate, 10 minutes pre-incubation
T1 construct: Recombinant E. coli or Baculovirus full-length NS3 was diluted to 3.33 μM with assay buffer; host or cells: E. coli or baculovirus (insect cells)
Protocol: NS3 Complex Formation with NS4A-2.
Recombinant E. coli or Baculovirus full-length NS3 was diluted to 3.33 μM with assay buffer and the material was transferred to an eppendorf tube and placed in a water bath in a 4° C. refrigerator. The appropriate amount of NS4A-2 diluted to 8.3 mM in assay buffer was added to an equal the volume of NS3 above (conversion factor—3.8 mg/272 μL assay buffer). The material was transferred to an eppendorf tube and placed in water bath in a 4° C. refrigerator.
After equilibration to 4° C., equal volumes of NS3 and NS4A-2 solutions were combined in an eppendorf tube, mixed gently with a manual pipettor, and incubated for 15 minutes in the 4° C. water bath. Final concentrations in the mixture are 1.67 μM NS3, 4.15 mM NS4A-2 (2485-fold molar excess NS4A-2).
After 15 minutes at 4° C., the NS3/NS4A-2 eppendorf tube was removed and placed in a room temperature water bath for 10 minutes. NS3/NS4A-2 was aliquoted at appropriate volumes and stored at −80° C. (E. coli NS3 run at 2 nM in assay, aliquot at 25 μL. BV NS3 run at 3 nM in assay, aliquot at 30 μL).
Step a. Sample compounds were dissolved to 10 mM in DMSO then diluted to 2.5 mM (1:4) in DMSO. Typically, compounds were added to an assay plate at 2.5 mM concentration, yielding upon dilution a starting concentration of 50 μM in the assay inhibition curve. Compounds were serial diluted in assay buffer to provide test solutions at lower concentrations.
Step 1. The E. coli. NS3/NS4A-2 was diluted to 4 nM NS3 (1:417.5 of 1.67 μM stock−18 μL 1.67 μM stock+7497 μL assay buffer). The BV NS3/NS4A-2 was diluted to 6 nM NS3 (1:278.3 of 1.67 μM stock−24 μL 1.67 μM stock+6655 μL assay buffer).
Step. 2. Using the manual multichannel pipettor, and being careful not to introduce bubbles into the plate, 50 μL assay buffer was added to wells A01-H01 of a black Costar 96-well polypropylene storage plate.
Step 3. Using the manual multichannel pipettor, and being careful not to introduce bubbles into the plate, 50 μL of diluted NS3/NS4A-2 from step 1 was added to wells A02-H12 of the plate in step 2.
Step 4. Using the manual multichannel pipettor, and being careful not to introduce bubbles into the plate, 25 μL of the wells in drug dilution plate in step a was transferred to corresponding wells in assay plate in step 3. The tips on the multichannel pipettor were changed for each row of compounds transferred.
Step 5. Using the manual multichannel pipettor, and being careful not to introduce bubbles into the plate, the contents of the wells from the assay plate in step 4 were mixed by aspirating and dispensing 35 μL of the 75 μL in each well five times. The tips on multichannel pipettor were changed for each row of wells mixed.
Step 6. The plate was covered with a polystyrene plate lid, and the plate from step 5 containing NS3 protease and sample compounds was pre-incubated 10 minutes at room temperature.
While the plate from step 6 is pre-incubating, the RETS1 substrate was diluted in a 15 mL polypropylene centrifuge tube. The RETS1 substrate was diluted to 8 μM (1:80.75 of 646 μM stock−65 μL 646 μM stock+5184 μL assay buffer).
After the plate in step 6 finished pre-incubating, and using the manual multichannel, 25 μL of substrate was added to all wells on the plate. The contents of the wells of the plate were quickly mixed, as in step 5, mixing 65 μL of the 100 μL in the wells.
The plate was read in kinetic mode on the Molecular Devices SpectraMax Gemini XS plate reader. Reader settings: Read time: 30 minutes, Interval: 36 seconds, Reads: 51, Excitation λ: 335 nm, Emission λ: 495 nm, cutoff: 475 nm, Automix: off, Calibrate: once, PMT: high, Reads/well: 6, Vmax pts: 21 or 28/51 depending on length of linearity of reaction
IC50s are determined using a four parameter curve fit equation, and converted to Ki's using the following Km's: • Full-length E. coli NS3-2.03 μM • Full-length BV NS3-1.74 μM • where Ki=IC50/(1+[S]/Km))

[2] = tested on: HCV sub-genomic replicon (I377/NS3-3′) in HuH-7 hepatoma cells (GS4.3); test: Quantitation by ELISA of NPTII in the HCV sub-genomic replicon, GS4.3; assay type: cell-based; details: Hepatitis C virus, GS4.3 replicon cells, 72 h incubation
Protocol: The HCV sub-genomic replicon (I377/NS3-3′, accession No. AJ242652), stably maintained in HuH-7 hepatoma cells, was created by Lohmann et al. Science 285: 110-113 (1999). The replicon-containing cell culture, designated GS4.3, was obtained from Dr. Christoph Seeger of the Institute for Cancer Research, Fox Chase Cancer Center, Philadelphia, Pa.
GS4.3 cells were maintained at 37° C., 5% CO2, in DMEM (Gibco 11965-092) supplemented with L-glutamine 200 mM (100×) (Gibco25030-081), non-essential amino acids (NEAA)(Biowhittaker 13-114E), heat-inactivated (HI) Fetal Bovine Serum(FBS)(Hyclone SH3007.03) and […] geneticin (G418)(Gibco 10131-035). Cells were sub-divided 1:3 or 4 every 2-3 days.
24 h prior to the assay, GS4.3 cells were collected, counted, and plated in 96-well plates (Costar 3585) at 7500 cells/well in 100 μL standard maintenance medium (above) and incubated in the conditions above. To initiate the assay, culture medium was removed, cells were washed once with PBS (Gibco 10010-023) and 90 μl Assay Medium (DMEM, L-glutamine, NEAA, 10% HI FBS, no G418) was added. Inhibitors were made as a 10× stock in Assay Medium, (3-fold dilutions from 10 μM to […] final concentration, final DMSO concentration 1%), 10 μL were added to duplicate wells, plates were rocked to mix, and incubated as above for 72 h.
An NPTII Elisa kit was obtained from AGDIA, Inc. (Compound direct ELISA test system for Neomycin Phosphotransferase II, PSP 73000/4800). Manufacturer's instructions were followed, with some modifications. 10×PEB-1 lysis buffer was made up to include 500 μM PMSF (Sigma P7626, 50 mM stock in isopropanol). After 72 h incubation, cells were washed once with PBS and 150 μL PEB-1 with PMSF was added per well. Plates were agitated vigorously for 15 minutes, room temperature, and then frozen at −70° C. Plates were thawed, lysates were mixed thoroughly, and 100 μL were applied to an NPTII Elisa plate. A standard curve was made. Lysate from DMSO-treated control cells was pooled, serially diluted with PEB-1 with PMSF, and applied to duplicate wells of the ELISA plate, in a range of initial lysate amount of 150 μL. In addition, 100 μL buffer alone was applied in duplicate as a blank. Plates were sealed and gently agitated at room temperature for 2 h. Following capture incubation, the plates were washed 5×300 μL with PBS-T (0.5% Tween-20, PBS-T was supplied in the ELISA kit). For detection, a 1× dilution of enzyme conjugate diluent MRS-2 (5×) was made in PBS-T, into which 1:100 dilutions of enzyme conjugates A and B were added, as per instructions. Plates were resealed, and incubated with agitation, covered, room temperature, for 2 h. The washing was then repeated and 100 μL of room temperature TMB substrate was added. After approximately 30 minutes incubation (room temperature, agitation, covered), the reaction was stopped with 50 μL 3M sulfuric acid. Plates were read at 450 nm on a Molecular Devices Versamax plate reader.
Inhibitor effect was expressed as a percentage of DMSO-treated control signal, and inhibition curves were calculated using a 4-parameter equation: y=A+4B−A)/(1+((C/x)̂D))), where C is half-maximal activity or EC50.

T1 sequence (P27958 1027-1657, one chain of several): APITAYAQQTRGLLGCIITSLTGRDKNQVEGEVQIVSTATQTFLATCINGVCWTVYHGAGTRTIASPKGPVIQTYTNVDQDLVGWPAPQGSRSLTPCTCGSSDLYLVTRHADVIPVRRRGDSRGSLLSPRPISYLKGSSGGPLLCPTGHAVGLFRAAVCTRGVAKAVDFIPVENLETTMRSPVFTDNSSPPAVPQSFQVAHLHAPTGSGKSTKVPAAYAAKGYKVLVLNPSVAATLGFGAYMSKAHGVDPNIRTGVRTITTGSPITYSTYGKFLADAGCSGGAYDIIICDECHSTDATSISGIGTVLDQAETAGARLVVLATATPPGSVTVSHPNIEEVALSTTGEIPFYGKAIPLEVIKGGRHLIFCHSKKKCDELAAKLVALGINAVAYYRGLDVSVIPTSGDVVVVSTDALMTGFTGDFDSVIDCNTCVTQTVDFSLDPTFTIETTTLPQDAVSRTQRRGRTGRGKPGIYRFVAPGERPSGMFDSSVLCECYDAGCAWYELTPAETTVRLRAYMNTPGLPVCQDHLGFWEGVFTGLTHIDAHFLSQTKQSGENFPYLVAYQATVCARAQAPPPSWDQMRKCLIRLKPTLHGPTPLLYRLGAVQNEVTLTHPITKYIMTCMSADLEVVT

`CC[C@@H]1C[C@@]12NC(=O)[C@@H]1C[C@H](CN1C(=O)[C@@H](NC(=O)OC(C)(C)C)C(C)(C)C)Oc1nc3c(cccc3n1C(C)C)C(=O)NCC=CCCCC1(CC1)S(=O)(=O)NC2=O` [Compound 9] was tested, and the IC50 [1] was no more than 10 nM and the EC50 [2] was 10 to 100 nM.

`CC[C@@H]1C[C@@]12NC(=O)[C@@H]1C[C@H](CN1C(=O)[C@@H](NC(=O)OC(C)(C)C)C(C)(C)C)Oc1nc3c(cccc3n1C(C)C)C(=O)NCCC=CCCC1(CC1)S(=O)(=O)NC2=O` [Compound 10] gave an IC50 [1] of no more than 10 nM and an EC50 [2] of no less than 100 nM.

`CC[C@@H]1C[C@@]12NC(=O)[C@@H]1C[C@H](CN1C(=O)[C@@H](NC(=O)OC(C)(C)C)C(C)(C)C)Oc1nc3c(cccc3n1C(C)C)C(=O)NCCCCCCC1(CC1)S(=O)(=O)NC2=O` [Compound 11] gave an IC50 [1] of no more than 10 nM and an EC50 [2] of no less than 100 nM.

`CC[C@@H]1C[C@@]12NC(=O)[C@@H]1C[C@H](CN1C(=O)[C@@H](NC(=O)OC(C)(C)C)C(C)(C)C)Oc1nc3c(cccc3n1C(C)C)C(=O)NCCC=CCCCC1(CC1)S(=O)(=O)NC2=O` [Compound 12] was tested, and the IC50 [1] was no more than 10 nM and the EC50 [2] was 10 to 100 nM.

Compound `CC[C@@H]1C[C@@]12NC(=O)[C@@H]1C[C@H](CN1C(=O)[C@@H](NC(=O)OC(C)(C)C)C(C)(C)C)Oc1nc3c(cccc3n1C(C)C)C1=NC(C(C)C)=C(CCC=CCCC3(CC3)S(=O)(=O)NC2=O)S1` [Compound 13] has an IC50 [1] of no more than 10 nM and an EC50 [2] of no less than 100 nM.

For `CC[C@@H]1C[C@@]12NC(=O)[C@@H]1C[C@H](CN1C(=O)[C@@H](NC(=O)OC(C)(C)C)C(C)(C)C)Oc1nc3c(cccc3n1C(C)C)C(=O)NCCCCCCCC1(CC1)S(=O)(=O)NC2=O` [Compound 14], the IC50 [1] was no more than 10 nM and the EC50 [2] was no more than 10 nM.

Work on `CC[C@@H]1C[C@@]12NC(=O)[C@@H]1C[C@H](CN1C(=O)[C@@H](NC(=O)OC(C)(C)C)C(C)(C)C)Oc1nc3c(cccc3n1C(C)C)C1=NC(C(C)C)=C(CCCCCCC3(CC3)S(=O)(=O)NC2=O)S1` [Compound 15] yielded an IC50 [1] of no more than 10 nM and an EC50 [2] of no less than 100 nM.

`CC[C@@H]1C[C@@]12NC(=O)[C@@H]1C[C@H](CN1C(=O)[C@@H](NC(=O)OC(C)(C)C)C(C)(C)C)Oc1nc3c(cccc3n1C(C)C)C1=NC(C(C)C)=C(CCC/C=C/CCCC3(CC3)S(=O)(=O)NC2=O)S1` [Compound 101] gave an IC50 [1] of no more than 10 nM and an EC50 [2] of no less than 100 nM.

For `CC[C@@H]1C[C@@]12NC(=O)[C@@H]1C[C@H](CN1C(=O)[C@@H](NC(=O)OC(C)(C)C)C(C)(C)C)Oc1nc3c(cccc3n1C(C)C)C1=NC(C(C)C)=C(CCCCCCCCC3(CC3)S(=O)(=O)NC2=O)S1` [Compound 102], the IC50 [1] was 10 to 100 nM and the EC50 [2] was no less than 100 nM.

With `CC[C@@H]1C[C@@]12NC(=O)[C@@H]1C[C@H](CN1C(=O)[C@@H](N)C(C)(C)C)Oc1nc3c(cccc3n1C(C)C)C1=NC(C(C)C)=C(CCC/C=C/CCCC3(CC3)S(=O)(=O)NC2=O)S1` [Compound 103] the IC50 [1] was 10 to 100 nM and the EC50 [2] was no less than 100 nM.

`CC[C@@H]1C[C@@]12NC(=O)[C@@H]1C[C@H](CN1C(=O)[C@@H](N)C(C)(C)C)Oc1nc3c(cccc3n1C(C)C)C1=NC(C(C)C)=C(CCCCCCCCC3(CC3)S(=O)(=O)NC2=O)S1` [Compound 104] gave an IC50 [1] of 10 to 100 nM and an EC50 [2] of no less than 100 nM.

Work on `CC[C@@H]1C[C@@]12NC(=O)[C@@H]1C[C@H](CN1C(=O)[C@@H](NC(=O)OC(C)(C)C)C(C)(C)C)Oc1nc3c(cccc3n1C(C)C)C1=NC(C(C)C)=C(CC/C=C/CCCCS(=O)(=O)NC2=O)S1` [Compound 105] yielded an IC50 [1] of no more than 10 nM and an EC50 [2] of no less than 100 nM.

In the case of `CC[C@@H]1C[C@@]12NC(=O)[C@@H]1C[C@H](CN1C(=O)[C@@H](NC(=O)OC(C)(C)C)C(C)(C)C)Oc1nc3c(cccc3n1C(C)C)C1=NC(C(C)C)=C(CC/C=C\CCCCS(=O)(=O)NC2=O)S1` [Compound 106], the IC50 [1] is reported as 10 to 100 nM and the EC50 [2] is reported as no less than 100 nM.

With `CC[C@@H]1C[C@@]12NC(=O)[C@@H]1C[C@H](CN1C(=O)[C@@H](NC(=O)OC(C)(C)C)C(C)(C)C)Oc1nc3c(cccc3n1C(C)C)C1=NC(C(C)C)=C(CCCCCCCCS(=O)(=O)NC2=O)S1` [Compound 107] the IC50 [1] was 10 to 100 nM and the EC50 [2] was no less than 100 nM.

Work on `CC[C@@H]1C[C@@]12NC(=O)[C@@H]1C[C@H](CN1C(=O)[C@@H](N)C(C)(C)C)Oc1nc3c(cccc3n1C(C)C)C1=NC(C(C)C)=C(CC/C=C\CCCCS(=O)(=O)NC2=O)S1` [Compound 108] yielded an IC50 [1] of no less than 100 nM and an EC50 [2] of no less than 100 nM.

`CC[C@@H]1C[C@@]12NC(=O)[C@@H]1C[C@H](CN1C(=O)[C@@H](N)C(C)(C)C)Oc1nc3c(cccc3n1C(C)C)C1=NC(C(C)C)=C(CC/C=C/CCCCS(=O)(=O)NC2=O)S1` [Compound 109] showed an IC50 [1] of no less than 100 nM and an EC50 [2] of no less than 100 nM.

`CC[C@@H]1C[C@@]12NC(=O)[C@@H]1C[C@H](CN1C(=O)[C@@H](N)C(C)(C)C)Oc1nc3c(cccc3n1C(C)C)C1=NC(C(C)C)=C(CCCCCCCCS(=O)(=O)NC2=O)S1` [Compound 110] gave an IC50 [1] of no less than 100 nM and an EC50 [2] of no less than 100 nM.
